Measured values taken from ChEMBL document CHEMBL1240371, “Randomized, double-blind study of the safety, tolerability, and efficacy of tafenoquine versus mefloquine for malaria prophylaxis in nonimmune subjects” (Antimicrob Agents Chemother, 2010).

What was measured:
Conditions in all cases: in vivo, po
Homo sapiens [1] = organism: Homo sapiens; experiment: Toxicity in […] assessed as incidence of arthralgia at 200 mg, perorally for 3 days and weekly 200 mg, perorally maintenance dose for 26 +/- 4 weeks; format: organism-based
Homo sapiens [2] = organism: Homo sapiens; experiment: Toxicity in […] assessed as incidence of abnormal dreams at 200 mg, perorally for 3 days and weekly 200 mg, perorally maintenance dose for 26 +/- 4 weeks; format: organism-based
Homo sapiens [3] = organism: Homo sapiens; experiment: Toxicity in […] assessed as incidence of increase in bilirubin at 200 mg, perorally for 3 days and weekly 200 mg, perorally maintenance dose for 26 +/- 4 weeks; format: organism-based
Homo sapiens [4] = organism: Homo sapiens; experiment: Toxicity in […] assessed as incidence of decrease in hematocrit at 250 mg, perorally for 3 days and weekly 250 mg, perorally maintenance dose for 26 +/- 4 weeks relative to baseline; format: organism-based; set-up: scale not given: the % may be the effect or the level left
Homo sapiens [5] = organism: Homo sapiens; experiment: Toxicity in […] assessed as incidence of pigmentation of retinal epithelium at 200 mg, perorally for 3 days and weekly 200 mg, perorally maintenance dose for 26 +/- 4 weeks; format: organism-based
Homo sapiens [6] = organism: Homo sapiens; experiment: Toxicity in […] assessed as incidence of somnolence at 200 mg, perorally for 3 days and weekly 200 mg, perorally maintenance dose for 26 +/- 4 weeks; format: organism-based
Homo sapiens [7] = organism: Homo sapiens; experiment: Toxicity in […] assessed as incidence of abdominal pain at 200 mg, perorally for 3 days and weekly 200 mg, perorally maintenance dose for 26 +/- 4 weeks; format: organism-based, Abdomen
Homo sapiens [8] = organism: Homo sapiens; experiment: Toxicity in […] assessed as incidence of headache at 200 mg, perorally for 3 days and weekly 200 mg, perorally maintenance dose for 26 +/- 4 weeks; format: organism-based
Homo sapiens [9] = organism: Homo sapiens; experiment: Toxicity in […] assessed as incidence of anxiety at 200 mg, perorally for 3 days and weekly 200 mg, perorally maintenance dose for 26 +/- 4 weeks; format: organism-based
Homo sapiens [10] = organism: Homo sapiens; experiment: Toxicity in […] assessed as incidence of dizziness at 200 mg, perorally for 3 days and weekly 200 mg, perorally maintenance dose for 26 +/- 4 weeks; format: organism-based
Homo sapiens [11] = organism: Homo sapiens; experiment: Toxicity in […] assessed as incidence of nausea at 200 mg, perorally for 3 days and weekly 200 mg, perorally maintenance dose for 26 +/- 4 weeks; format: organism-based
Homo sapiens [12] = organism: Homo sapiens; experiment: Toxicity in […] assessed as incidence of phayngitis at 200 mg, perorally for 3 days and weekly 200 mg, perorally maintenance dose for 26 +/- 4 weeks; format: organism-based
Homo sapiens [13] = organism: Homo sapiens; experiment: Toxicity in […] assessed as incidence of amnesia at 200 mg, perorally for 3 days and weekly 200 mg, perorally maintenance dose for 26 +/- 4 weeks; format: organism-based
Homo sapiens [14] = organism: Homo sapiens; experiment: Toxicity in […] assessed as incidence of rash at 200 mg, perorally for 3 days and weekly 200 mg, perorally maintenance dose for 26 +/- 4 weeks; format: organism-based
Homo sapiens [15] = organism: Homo sapiens; experiment: Toxicity in […] assessed as incidence of agitation at 200 mg, perorally for 3 days and weekly 200 mg, perorally maintenance dose for 26 +/- 4 weeks; format: organism-based
Homo sapiens [16] = organism: Homo sapiens; experiment: Toxicity in […] assessed as incidence of fungal dermatitis at 200 mg, perorally for 3 days and weekly 200 mg, perorally maintenance dose for 26 +/- 4 weeks; format: organism-based
Homo sapiens [17] = organism: Homo sapiens; experiment: Toxicity in […] assessed as incidence of vertigo at 200 mg, perorally for 3 days and weekly 200 mg, perorally maintenance dose for 26 +/- 4 weeks; format: organism-based
Homo sapiens [18] = organism: Homo sapiens; experiment: Toxicity in […] assessed as incidence of back pain at 200 mg, perorally for 3 days and weekly 200 mg, perorally maintenance dose for 26 +/- 4 weeks; format: organism-based
Homo sapiens [19] = organism: Homo sapiens; experiment: Toxicity in […] assessed as incidence of insomnia at 200 mg, perorally for 3 days and weekly 200 mg, perorally maintenance dose for 26 +/- 4 weeks; format: organism-based
Homo sapiens [20] = organism: Homo sapiens; experiment: Toxicity in […] assessed as incidence of paroniria at 200 mg, perorally for 3 days and weekly 200 mg, perorally maintenance dose for 26 +/- 4 weeks; format: organism-based
Homo sapiens [21] = organism: Homo sapiens; experiment: Toxicity in […] assessed as incidence of viral infection at 200 mg, perorally for 3 days and weekly 200 mg, perorally maintenance dose for 26 +/- 4 weeks; format: organism-based
Homo sapiens [22] = organism: Homo sapiens; experiment: Toxicity in […] assessed as incidence of increase in serum creatinine at 200 mg, perorally for 3 days and weekly 200 mg, perorally maintenance dose for 26 +/- 4 weeks; format: organism-based
Homo sapiens [23] = organism: Homo sapiens; experiment: Toxicity in […] assessed as incidence of vortex keratopathy at 200 mg, perorally for 3 days and weekly 200 mg, perorally maintenance dose for 26 +/- 4 weeks; format: organism-based
Homo sapiens [24] = organism: Homo sapiens; experiment: Toxicity in […] assessed as incidence of vomiting at 200 mg, perorally for 3 days and weekly 200 mg, perorally maintenance dose for 26 +/- 4 weeks; format: organism-based
Homo sapiens [25] = organism: Homo sapiens; experiment: Toxicity in […] assessed as incidence of diarrhea at 200 mg, perorally for 3 days and weekly 200 mg, perorally maintenance dose for 26 +/- 4 weeks; format: organism-based
Homo sapiens [26] = organism: Homo sapiens; experiment: Toxicity in […] assessed as incidence of tremor at 200 mg, perorally for 3 days and weekly 200 mg, perorally maintenance dose for 26 +/- 4 weeks; format: organism-based
Homo sapiens [27] = organism: Homo sapiens; experiment: Toxicity in […] assessed as incidence of depression at 200 mg, perorally for 3 days and weekly 200 mg, perorally maintenance dose for 26 +/- 4 weeks; format: organism-based
Homo sapiens [28] = organism: Homo sapiens; experiment: Toxicity in […] assessed as incidence of euphoria at 200 mg, perorally for 3 days and weekly 200 mg, perorally maintenance dose for 26 +/- 4 weeks; format: organism-based
Homo sapiens [29] = organism: Homo sapiens; experiment: Toxicity in […] assessed as incidence of abnormal retinal fluorescein at 200 mg, perorally for 3 days and weekly 200 mg, perorally maintenance dose for 26 +/- 4 weeks; format: organism-based
Homo sapiens [30] = organism: Homo sapiens; experiment: Toxicity in […] assessed as incidence of decrease in hematocrit at 200 mg, perorally for 3 days and weekly 200 mg, perorally maintenance dose for 26 +/- 4 weeks; format: organism-based; set-up: scale not given: the % may be the effect or the level left
Homo sapiens [31] = organism: Homo sapiens; experiment: Toxicity in […] assessed as incidence of abnormal coordination at 200 mg, perorally for 3 days and weekly 200 mg, perorally maintenance dose for 26 +/- 4 weeks; format: organism-based

## COc1cc(C)c2c(Oc3cccc(C(F)(F)F)c3)c(OC)cc(NC(C)CCCN)c2n1 (stereo unspecified) [TAFENOQUINE]
Homo sapiens [1]
  Activity: 55%
Homo sapiens [2]
  Activity: 7%
Homo sapiens [3]
  Activity: 2.6%
Homo sapiens [4]
  Activity: 15%
Homo sapiens [5]
  Activity: 39.1%
Homo sapiens [6]
  Activity: 12%
Homo sapiens [7]
  Activity: 24%
Homo sapiens [8]
  Activity: 61%
Homo sapiens [9]
  Activity: 2%
Homo sapiens [10]
  Activity: 5%
Homo sapiens [11]
  Activity: 28%
Homo sapiens [12]
  Activity: 25%
Homo sapiens [13]
  Activity: 1%
Homo sapiens [14]
  Activity: 70%
Homo sapiens [15]
  Activity: 2%
Homo sapiens [16]
  Activity: 44%
Homo sapiens [17]
  Activity: 22%
Homo sapiens [18]
  Activity: 74%
Homo sapiens [19]
  Activity: 5%
Homo sapiens [20]
  Activity: 1%
Homo sapiens [21]
  Activity: 39%
Homo sapiens [22]
  Activity: 19%
Homo sapiens [23]
  Activity: 93.2%
Homo sapiens [24]
  Activity: 21%
Homo sapiens [25]
  Activity: 77%
Homo sapiens [26]
  Activity: 2%
Homo sapiens [27]
  Activity: 1%
Homo sapiens [28]
  Activity: 2%
Homo sapiens [29]
  Activity: 28.6%
Homo sapiens [30]
  Activity: 20%
Homo sapiens [31]
  Activity: 2%
